Consider two compounds from patent publication US5614533A, “Substituted pipecolinic acid derivatives as HIV protease inhibitors” (Bio-Mega/Boehringer Ingelheim Research, Inc., priority 1994, dated 1997).

Usually EC50 stands for the concentration giving half of the maximal effect. What is called IC50 is the concentration needed to halve the response being measured.

The subject of experiment [1] is HIV (H9/HTLV-IIIB) in C8166 cells. Nature of the experiment: plaque assay: inhibition of syncytia formation in HIV-infected C8166 cells. Format: cell-based. Particulars: Human immunodeficiency virus 1, IIIB, Table VII, 72 h, 50% inhibition of syncytia formation. The gist of the method: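 C8166 cells (5×10^4/well) infected with 50× TCID50 H9/HTLV-IIIB in HEPES-buffered RPMI 1640 (pH 7.2), 10% FCS, with test compound in triplicate; 72 h at 37°, 5% CO2. Syncytia centers counted by phase-contrast microscopy; EC50 from percent inhibition versus serial dilutions by non-linear regression.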

Experiment [2] has as its target T1, HIV protease (Human immunodeficiency virus type 1 group M subtype B, UniProt P04585).
T1 construct: HIV protease was expressed in E. coli; made in house; host or cells: E. coli (plasmid pBRT1 prt+)
As to the kind of experiment: Recombinant HIV Protease HPLC Assay. Particulars: Table VII; 37°, 30 min, pH 5.5. Format: biochemical. Put shortly: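 Recombinant protease from E. coli (pBRT1 prt+ construct), purified and diluted 1/38 for use, cleaves the decapeptide substrate VSFNFPQITL-NH2, containing an HIV polyprotein cleavage site. Inhibition of cleavage is monitored by HPLC.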

Consider `CC(C)(C)NC(=O)[C@@H]1C[C@H](Sc2ccncc2)CCN1C[C@@H](O)[C@H](Cc1ccccc1)NC(=O)c1cc(Cl)ccc1Cl` [Table VII, entry 7, N-tert-butyl-1-{3(S)-{{(2,5-dichlorophenyl)carbonyl}amino}-2(R)-hydroxy-4-phenylbutyl}-4(R)-(4-pyridinylthio)piperidine-2(S)-carboxamide], for which the EC50 in experiment [1] stood at 360 nM. Besides, the IC50 in experiment [2] was 9.8 nM.
On the same counts, the results for `CC(C)(C)NC(=O)[C@@H]1C[C@H](Sc2ccncc2)CCN1C[C@@H](O)[C@H](Cc1ccccc1)NC(=O)c1c(F)cccc1F` [Table VII, entry 8, N-tert-butyl-1-{3(S)-{{(2,6-difluorophenyl)carbonyl}amino}-2(R)-hydroxy-4-phenylbutyl}-4(R)-(4-pyridinylthio)piperidine-2(S)-carboxamide] are 340 nM and 14 nM.
